Reference: patent US8278345B2, “Inhibitors of glutaminyl cyclase” (Probiodrug AG, priority 2006, dated 2012)

The compounds below were run against hQC (Homo sapiens, UniProt Q16769) (assay: Inhibitor assay for glutaminyl cyclase activity (fluorometric, H-Gln-βNA / H-Gln-AMC)). Settings: compound from preparative synthesis, purified; read-out: IC50 hQC.
Assay type: biochemical
Summary of the method: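 Coupled fluorometric assay at 30 °C with pyroglutamyl aminopeptidase, in Tris/HCl pH 8.0 with EDTA, substrate H-Gln-βNA (0.2 mM; ex/em 320/410 nm) or H-Gln-AMC (ex/em 380/460 nm), initiated by QC. Screening: 4 mM inhibitor, substrate at 1 KM; Ki from progress curves fitted to competitive inhibition.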

hQC, sequence (Q16769 29-361): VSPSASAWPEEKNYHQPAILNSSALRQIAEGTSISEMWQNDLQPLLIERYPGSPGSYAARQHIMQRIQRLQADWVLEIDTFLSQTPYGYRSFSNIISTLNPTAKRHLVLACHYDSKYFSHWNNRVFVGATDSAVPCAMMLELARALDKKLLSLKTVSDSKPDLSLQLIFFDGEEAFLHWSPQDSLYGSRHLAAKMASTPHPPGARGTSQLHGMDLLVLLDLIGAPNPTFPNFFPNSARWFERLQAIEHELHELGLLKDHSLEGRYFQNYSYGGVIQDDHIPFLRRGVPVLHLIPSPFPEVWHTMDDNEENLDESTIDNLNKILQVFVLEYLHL

IC50 [µM] | SMILES
1.67 | O=C1C(O)=C(c2ccccc2)C(C2CCC=CO2)N1CCCn1ccnc1 (stereo not drawn) [Compound 93, 5-(3,4-Dihydro-2H-pyran-2-yl)-3-hydroxy-1-(3-imidazol-1-yl-propyl)-4-phenyl-1,5-dihydro-pyrrol-2-one]

Same assay, conditions: read-out: IC50

IC50 [µM] | SMILES
8.05 | CC(C)C1=C(O)C(=O)N(c2ccc3[nH]cnc3c2)C1c1c(F)ccc(Cl)c1F (stereo not drawn) [Compound 365, 1-(1H-Benzoimidazol-5-yl)-5-(3-chloro-2,6-difluoro-phenyl)-3-hydroxy-4-isopropyl-1,5-dihydro-pyrrol-2-one]
0.4 | O=C1C(O)=C(c2c[nH]c3ccccc23)C(C2CC2)N1CCCn1ccnc1 (stereo not drawn) [Compound 139, 5-Cyclopropyl-3-hydroxy-1-(3-imidazol-1-yl-propyl)-4-(1H-indol-3-yl)-1,5-dihydro-pyrrol-2-one]
1.3 | O=C1C(O)=C(c2c[nH]c3ccccc23)C(c2ncc[nH]2)N1CCCn1ccnc1 (stereo not drawn) [Compound 133, 3-Hydroxy-5-(1H-imidazol-2-yl)-1-(3-imidazol-1-yl-propyl)-4-(1H-indol-3-yl)-1,5-dihydro-pyrrol-2-one]
4 | CCCCCC(=O)C1=C(O)C(=O)N(c2ccc3[nH]cnc3c2)C1CC (stereo not drawn) [Compound 463, 1-(1H-Benzoimidazol-5-yl)-5-ethyl-4-hexanoyl-3-hydroxy-1,5-dihydro-pyrrol-2-one]
0.22 | O=C1C(O)=C(c2cccc(O)c2)C(c2ccc3cccc(O)c3n2)N1c1ccc2[nH]cnc2c1 (stereo not drawn) [Compound 304, 1-(1H-Benzoimidazol-5-yl)-3-hydroxy-4-(3-hydroxy-phenyl)-5-(8-hydroxy-quinolin-2-yl)-1,5-dihydro-pyrrol-2-one]
4.9 | CCCCCC1C(F)=C(O)C(=O)N1CCCn1ccnc1 (stereo not drawn) [Compound 2, 4-Fluoro-3-hydroxy-1-(3-imidazol-1-yl-propyl)-5-pentyl-1,5-dihydro-pyrrol-2-one]
0.04 | O=C1C(O)=C(c2ccccc2)C(C2CCC=CO2)N1CCCn1ccnc1 (stereo not drawn) [Compound 93, 5-(3,4-Dihydro-2H-pyran-2-yl)-3-hydroxy-1-(3-imidazol-1-yl-propyl)-4-phenyl-1,5-dihydro-pyrrol-2-one]
0.04 | CCCCCC1=C(O)C(=O)N(CCCn2ccnc2)C1c1ccccc1 (stereo not drawn) [Compound 199, 3-Hydroxy-1-(3-imidazol-1-yl-propyl)-4-pentyl-5-phenyl-1,5-dihydro-pyrrol-2-one]
1.3 | O=C1C(O)=C(c2c[nH]c3ccccc23)C(C(F)(F)F)N1CCCn1ccnc1 (stereo not drawn) [Compound 131, 3-Hydroxy-1-(3-imidazol-1-yl-propyl)-4-(1H-indol-3-yl)-5-trifluoromethyl-1,5-dihydro-pyrrol-2-one]
1.3 | O=C1C(O)=C(c2ccc(O)cc2)C(c2c(O)ccc3ccccc23)N1CCCn1ccnc1 (stereo not drawn) [Compound 170, 3-Hydroxy-5-(2-hydroxy-naphthalen-1-yl)-4-(4-hydroxy-phenyl)-1-(3-imidazol-1-yl-propyl)-1,5-dihydro-pyrrol-2-one]
1.3 | O=C1C(O)=C(c2ccccc2)C(c2ccc(CO)o2)N1CCCn1ccnc1 (stereo not drawn) [Compound 91, 3-Hydroxy-5-(5-hydroxymethyl-furan-2-yl)-1-(3-imidazol-1-yl-propyl)-4-phenyl-1,5-dihydro-pyrrol-2-one]
2.83 | Cc1cc(C2C(c3cccc(O)c3)=C(O)C(=O)N2c2ccc3[nH]cnc3c2)oc1C (stereo not drawn) [Compound 307, 1-(1H-Benzoimidazol-5-yl)-5-(4,5-dimethyl-furan-2-yl)-3-hydroxy-4-(3-hydroxy-phenyl)-1,5-dihydro-pyrrol-2-one]
1.3 | CCC1=C(O)C(=O)N(CCCn2ccnc2)C1c1ccc(CO)o1 (stereo not drawn) [Compound 234, 4-Ethyl-3-hydroxy-5-(5-hydroxymethyl-furan-2-yl)-1-(3-imidazol-1-yl-propyl)-1,5-dihydro-pyrrol-2-one]
0.04 | CCCCCC1=C(O)C(=O)N(CCCn2ccnc2)C1C1CCC=CO1 (stereo not drawn) [Compound 200, 5-(3,4-Dihydro-2H-pyran-2-yl)-3-hydroxy-1-(3-imidazol-1-yl-propyl)-4-pentyl-1,5-dihydro-pyrrol-2-one]
0.4 | O=C1C(O)=C(c2c[nH]c3ccccc23)C(c2ccc(O)cc2)N1CCCn1ccnc1 (stereo not drawn) [Compound 145, 3-Hydroxy-5-(4-hydroxy-phenyl)-1-(3-imidazol-1-yl-propyl)-4-(1H-indol-3-yl)-1,5-dihydro-pyrrol-2-one]
0.04 | CCCCCC1=C(O)C(=O)N(CCCn2ccnc2)C1c1ccc(C)cc1 (stereo not drawn) [Compound 184, 3-Hydroxy-1-(3-imidazol-1-yl-propyl)-4-pentyl-5-p-tolyl-1,5-dihydro-pyrrol-2-one]
0.4 | CCC1C(c2ccccc2)=C(O)C(=O)N1CCCn1ccnc1 (stereo not drawn) [Compound 108, 5-Ethyl-3-hydroxy-1-(3-imidazol-1-yl-propyl)-4-phenyl-1,5-dihydro-pyrrol-2-one]
1.3 | Cc1ccc(C2C(C(C)C)=C(O)C(=O)N2CCCn2ccnc2)o1 (stereo not drawn) [Compound 57, 3-Hydroxy-1-(3-imidazol-1-yl-propyl)-4-isopropyl-5-(5-methyl-furan-2-yl)-1,5-dihydro-pyrrol-2-one]
8.5 | O=C1C(O)=C(c2ccccc2)C(c2ccncc2)N1CCCn1ccnc1 (stereo not drawn) [Compound 102, 3-Hydroxy-1-(3-imidazol-1-yl-propyl)-4-phenyl-5-pyridin-4-yl-1,5-dihydro-pyrrol-2-one]

IC50 [µM] | SMILES
0.04 | O=C1C(O)=C(c2ccccc2)C(c2ccco2)N1CCCn1ccnc1 (stereo not drawn) [Compound 106, 5-Furan-2-yl-3-hydroxy-1-(3-imidazol-1-yl-propyl)-4-phenyl-1,5-dihydro-pyrrol-2-one]
1.3 | Cc1ccc(C2C(c3ccccc3)=C(O)C(=O)N2CCCn2ccnc2)cc1C (stereo not drawn) [Compound 88, 5-(3,4-Dimethyl-phenyl)-3-hydroxy-1-(3-imidazol-1-yl-propyl)-4-phenyl-1,5-dihydro-pyrrol-2-one]
0.4 | CCC1=C(O)C(=O)N(CCCn2ccnc2)C1c1c[nH]c2cc(C)ccc12 (stereo not drawn) [Compound 239, 4-Ethyl-3-hydroxy-1-(3-imidazol-1-yl-propyl)-5-(6-methyl-1H-indol-3-yl)-1,5-dihydro-pyrrol-2-one]
6.7 | CC1=C(O)C(=O)N(CCCn2ccnc2)C1C (stereo not drawn) [Compound 31, 3-Hydroxy-1-(3-imidazol-1-yl-propyl)-4,5-dimethyl-1,5-dihydro-pyrrol-2-one]
0.4 | CC1=C(O)C(=O)N(CCCn2ccnc2)C1c1c[nH]c2ccccc12 (stereo not drawn) [Compound 39, 3-Hydroxy-1-(3-imidazol-1-yl-propyl)-5-(1H-indol-3-yl)-4-methyl-1,5-dihydro-pyrrol-2-one]
0.58 | Cc1cccc(C2C(C(=O)C3CC3)=C(O)C(=O)N2c2ccc3[nH]cnc3c2)n1 (stereo not drawn) [Compound 316, 1-(1H-Benzoimidazol-5-yl)-4-cyclopropanecarbonyl-3-hydroxy-5-(6-methyl-pyridin-2-yl)-1,5-dihydro-pyrrol-2-one]
2.2 | CC1=C(O)C(=O)N(CCCn2ccnc2)C1c1ccccn1 (stereo not drawn) [Compound 43, 3-Hydroxy-1-(3-imidazol-1-yl-propyl)-4-methyl-5-pyridin-2-yl-1,5-dihydro-pyrrol-2-one]
0.04 | CCCCCC1=C(O)C(=O)N(CCCn2ccnc2)C1c1c[nH]c2cc(C)ccc12 (stereo not drawn) [Compound 202, 3-Hydroxy-1-(3-imidazol-1-yl-propyl)-5-(6-methyl-1H-indol-3-yl)-4-pentyl-1,5-dihydro-pyrrol-2-one]
2.56 | CC(C)CC(=O)C1=C(O)C(=O)N(c2ccc3[nH]cnc3c2)C1CCC(=O)O (stereo not drawn) [Compound 447, 3-[1-(1H-Benzoimidazol-5-yl)-4-hydroxy-3-(3-methyl-butyryl)-5-oxo-2,5-dihydro-1H-pyrrol-2-yl]-propionic acid]
7.51 | O=C1C(O)=C(c2ccccc2)C(c2cccc3cccnc23)N1c1ccc2[nH]cnc2c1 (stereo not drawn) [Compound 267, 1-(1H-Benzoimidazol-5-yl)-3-hydroxy-4-phenyl-5-quinolin-8-yl-1,5-dihydro-pyrrol-2-one]
8.5 | CC1C(F)=C(O)C(=O)N1CCCn1ccnc1 (stereo not drawn) [Compound 3, 4-Fluoro-3-hydroxy-1-(3-imidazol-1-yl-propyl)-5-methyl-1,5-dihydro-pyrrol-2-one]
2.2 | CC1=C(O)C(=O)N(CCCn2ccnc2)C1c1c(O)ccc2ccccc12 (stereo not drawn) [Compound 42, 3-Hydroxy-5-(2-hydroxy-naphthalen-1-yl)-1-(3-imidazol-1-yl-propyl)-4-methyl-1,5-dihydro-pyrrol-2-one]
0.04 | CCCCCC1C(CC)=C(O)C(=O)N1CCCn1ccnc1 (stereo not drawn) [Compound 232, 4-Ethyl-3-hydroxy-1-(3-imidazol-1-yl-propyl)-5-pentyl-1,5-dihydro-pyrrol-2-one]
7.69 | Cc1ccc(O)c(C2C(c3c[nH]c4ccccc34)=C(O)C(=O)N2c2ccc3[nH]cnc3c2)c1 (stereo not drawn) [Compound 332, 1-(1H-Benzoimidazol-5-yl)-3-hydroxy-5-(2-hydroxy-5-methyl-phenyl)-4-(1H-indol-3-yl)-1,5-dihydro-pyrrol-2-one]
2.2 | O=C1C(O)=C(c2cccc(O)c2)C(C(O)CO)N1CCCn1ccnc1 (stereo not drawn) [Compound 9, 5-(1,2-Dihydroxy-ethyl)-3-hydroxy-4-(3-hydroxy-phenyl)-1-(3-imidazol-1-yl-propyl)-1,5-dihydro-pyrrol-2-one]
0.04 | O=C1C(O)=C(c2ccccc2)C(c2c[nH]c3ccccc23)N1CCCn1ccnc1 (stereo not drawn) [Compound 97, 3-Hydroxy-1-(3-imidazol-1-yl-propyl)-5-(1H-indol-3-yl)-4-phenyl-1,5-dihydro-pyrrol-2-one]
0.4 | CCCCCC1=C(O)C(=O)N(CCCn2ccnc2)C1C1CC1 (stereo not drawn) [Compound 212, 5-Cyclopropyl-3-hydroxy-1-(3-imidazol-1-yl-propyl)-4-pentyl-1,5-dihydro-pyrrol-2-one]
6.61 | CCCC(=O)C1=C(O)C(=O)N(c2ccc3[nH]cnc3c2)C1CCC(=O)O (stereo not drawn) [Compound 324, 3-[1-(1H-Benzoimidazol-5-yl)-3-butyryl-4-hydroxy-5-oxo-2,5-dihydro-1H-pyrrol-2-yl]-propionic acid]
4.09 | CC1=C(O)C(=O)N(c2ccc3[nH]cnc3c2)C1c1c(F)c(F)cc(F)c1F (stereo not drawn) [Compound 393, 1-(1H-Benzoimidazol-5-yl)-3-hydroxy-4-methyl-5-(2,3,5,6-tetrafluoro-phenyl)-1,5-dihydro-pyrrol-2-one]
